The target of assay [1] is T1, GPR6 (Homo sapiens, UniProt P46095).
T1 construct: expressed in transfected cells; host or cells: CHO cells
Nature of the assay: GPR6 antagonist functional cAMP assay (LANCE Ultra cAMP TR-FRET, CHO cells stably expressing GPR6). The class given is cell-based. The method in brief:
(§1)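 Suspended cells were plated at 10,000 per well in Krebs-Ringer bicarbonate buffer containing 0.1% BSA and 150 μM Ro 20-1724, then treated with compounds for 45 min at 37 °C. Intracellular cAMP was then quantified by TR-FRET immunoassay.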
(Changes in cAMP serve as a functional read-out for many G protein-coupled receptors.)

The target in assay [2] is T2, GPR3 (Homo sapiens, UniProt P46089).
T2 construct: expressed in transfected cells; host or cells: CHO cells
T2 sequence (P46089 whole entry, species assumed): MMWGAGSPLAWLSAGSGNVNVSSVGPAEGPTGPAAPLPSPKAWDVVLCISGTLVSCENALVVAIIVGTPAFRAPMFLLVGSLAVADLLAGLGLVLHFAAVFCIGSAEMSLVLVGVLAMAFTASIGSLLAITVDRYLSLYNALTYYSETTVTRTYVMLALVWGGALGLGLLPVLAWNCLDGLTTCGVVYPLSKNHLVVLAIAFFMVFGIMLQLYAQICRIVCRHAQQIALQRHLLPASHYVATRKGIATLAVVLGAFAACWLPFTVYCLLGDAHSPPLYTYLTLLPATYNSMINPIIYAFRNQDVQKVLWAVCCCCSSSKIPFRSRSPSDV
Nature of the assay: GPR3 antagonist functional cAMP assay (LANCE Ultra cAMP TR-FRET, CHO cells stably expressing GPR3). The class given is cell-based. A digest of the protocol: as §1

Where [3] appears, read: CHO cells stably expressing GPR6, cAMP assay (Example 24).
[4] abbreviates: CHO cells stably expressing GPR3, cAMP assay (Example 24).
[5] abbreviates: procedure as described in Example 24.
Setting [6] is: CHO cells stably expressing GPR6, cAMP assay.
Where [7] appears, read: CHO cells stably expressing GPR3, cAMP assay.

SMILES strings stand for the structures.

T1 sequence (P46095 whole entry): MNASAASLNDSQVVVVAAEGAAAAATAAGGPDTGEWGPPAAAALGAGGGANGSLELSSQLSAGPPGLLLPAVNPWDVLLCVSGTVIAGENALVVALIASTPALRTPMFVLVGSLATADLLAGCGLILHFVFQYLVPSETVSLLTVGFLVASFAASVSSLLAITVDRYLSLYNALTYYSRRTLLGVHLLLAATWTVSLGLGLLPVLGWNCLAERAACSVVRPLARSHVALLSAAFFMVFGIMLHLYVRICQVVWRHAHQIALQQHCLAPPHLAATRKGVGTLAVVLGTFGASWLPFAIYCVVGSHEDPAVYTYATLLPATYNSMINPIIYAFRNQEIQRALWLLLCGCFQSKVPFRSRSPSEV

Regarding `CC(=O)N1CCc2nc(N3CCC(Oc4c(F)cccc4F)CC3)c(-c3cnn(C)c3)nc2C1` [Compound 454, 1-{2-[4-(2,6-difluorophenoxy)piperidin-1-yl]-3-(1-methyl-1H-pyrazol-4-yl)-5H,6H,7H,8H-pyrido[3,4-b]pyrazin-6-yl}ethan-1-one], the IC50 in assay [1] (setting [3]) and in assay [2] (setting [4]) was 1000 to 30000 nM throughout.
Take `CC(=O)N1CCc2nc(N3CCC(Oc4ccc(F)cc4F)CC3)c(-c3c(C)nn(C4CCCCO4)c3C)nc2C1` (stereo not drawn) [Compound 47, 1-{2-[4-(2,4-difluorophenoxy)piperidin-1-yl]-3-[3,5-dimethyl-1-(oxan-2-yl)-1H-pyrazol-4-yl]-5H,6H,7H,8H-pyrido[3,4-b]pyrazin-6-yl}ethan-1-one]: the IC50 in assay [1] (setting [5]) and in assay [2] (setting [5]) was 1000 to 30000 nM each time.
Take `Fc1ccc(OC2CCN(c3nc4cnccc4nc3-c3cn[nH]c3)CC2)c(F)c1` [Compound 100, 4-(2,4-difluorophenoxy)-1-[2-(1H-pyrazol-4-yl)pyrido[3,4-b]pyrazin-3-yl]piperidine]: the IC50 (commonly the midpoint of a concentration-inhibition curve) in assay [1] (setting [3]) fell in the range of 100 to 1000 nM; in assay [2] (setting [4]), 1000 to 30000 nM.
As for `CC(C)(O)C(C)(O)c1cc2nc(N3CCN(Cc4ccc(F)cc4F)CC3)c(-c3cnn(CF)c3)nc2cn1` (stereo not drawn) [Compound 607, 2-(2-{4-[(2,4-difluorophenyl)methyl]-1-piperazinyl}-3-[1-(fluoromethyl)-4-pyrazolyl]-1,4,6-triaza-7-naphthyl)-3-methyl-2,3-butanediol], the IC50 lay within 100 to 1000 nM in assay [1] (setting [6]) and 1000 to 30000 nM in assay [2] (setting [7]).
For the compound `CCn1cc(-c2nc3cnc(C(=O)C(C)(C)O)cc3nc2N2CCN(Cc3ccc(F)cc3F)CC2)cn1` [Compound 624, 1-(2-{4-[(2,4-difluorophenyl)methyl]-1-piperazinyl}-3-(1-ethyl-4-pyrazolyl)-1,4,6-triaza-7-naphthyl)-2-hydroxy-2-methyl-1-propanone], the IC50 in assay [1] (procedure of Example 24) was 100 to 1000 nM; in assay [2] (procedure of Example 24) it was 1000 to 30000 nM.
The like results for `CCn1cc(-c2nc3c(nc2N2CCC(Oc4ccc(F)cc4F)CC2)CCN(C(=O)CO)C3)cn1` [Compound 311, 1-{2-[4-(2,4-difluorophenoxy)piperidin-1-yl]-3-(1-ethyl-1H-pyrazol-4-yl)-5H,6H,7H,8H-pyrido[3,4-b]pyrazin-6-yl}-2-hydroxyethan-1-one] were, in that order, < 100 nM and 1000 to 30000 nM.
Regarding `CC(C)(C)OC(=O)N1CCCC1C(=O)N1CCc2nc(N3CCC(Oc4ccc(F)cc4F)CC3)c(-c3cnn(C4CCCCO4)c3)nc2C1` (stereo not drawn) [Compound 186, tert-butyl 2-{2-[4-(2,4-difluorophenoxy)piperidin-1-yl]-3-[1-(oxan-2-yl)-1H-pyrazol-4-yl]-5H,6H,7H,8H-pyrido[3,4-b]pyrazine-6-carbonyl}pyrrolidine-1-carboxylate], the IC50 in assay [1] (setting [3]) and in assay [2] (setting [4]) was 1000 to 30000 nM each time.
For the compound `COc1ncc(-c2nc3c(nc2N2CCC(Oc4ccc(F)cc4F)CC2)CCN(C(C)=O)C3)nc1OC` [Compound 215, 1-{2-[4-(2,4-difluorophenoxy)piperidin-1-yl]-3-(5,6-dimethoxypyrazin-2-yl)-5H,6H,7H,8H-pyrido[3,4-b]pyrazin-6-yl}ethan-1-one], the IC50 fell in the range of 100 to 1000 nM in assay [1] (setting [3]) and 1000 to 30000 nM in assay [2] (setting [4]).
As for `CC(=O)N1CCc2nc(N3CC[C@H](Oc4ccc(F)cc4F)[C@H](F)C3)c(-c3cnn(C)c3)nc2C1` (single isomer, unassigned) [Compound 334], the IC50 in assay [1] (procedure of Example 24) and in assay [2] (procedure of Example 24) was 1000 to 30000 nM each time.
Regarding `CC(C)(O)C(O)c1cc2nc(-c3cnn(C4CC4)c3)c(N3CCN(Cc4ccc(F)cc4F)CC3)nc2cn1` (single isomer, unassigned) [Compound 601], the IC50 is 100 to 1000 nM in assay [1] (setting [6]) and 1000 to 30000 nM in assay [2] (setting [7]).
As for `CC(C)(O)C(=O)c1cc2nc(N3CCN(Cc4ccc(F)cc4F)CC3)c(-c3cnn(C(F)F)c3)nc2cn1` [Compound 566, 1-{3-[1-(difluoromethyl)-4-pyrazolyl]-2-{4-[(2,4-difluorophenyl)methyl]-1-piperazinyl}-1,4,6-triaza-7-naphthyl}-2-hydroxy-2-methyl-1-propanone], the IC50 in assay [1] (setting [6]) fell in the range of 100 to 1000 nM; in assay [2] (setting [7]) it was 1000 to 30000 nM.
Regarding `CC(=O)N1CCc2nc(N3CCN(Cc4ccc(OC(F)F)cc4F)CC3)c(-c3cnn(C)c3)nc2C1` [Compound 358, 1-[2-(4-{[4-(difluoromethoxy)-2-fluorophenyl]methyl}piperazin-1-yl)-3-(1-methyl-1H-pyrazol-4-yl)-5H,6H,7H,8H-pyrido[3,4-b]pyrazin-6-yl]ethan-1-one], the IC50 in assay [1] (procedure of Example 24) and in assay [2] (procedure of Example 24) was 1000 to 30000 nM in each case.
Turning to `CC(C)(O)C(C)(O)c1cc2nc(N3CCC(Oc4ccc(F)cc4F)CC3)c(-c3cnn(CF)c3)nc2cn1` (stereo not drawn) [Compound 636, 2-{2-[4-(2,4-difluorophenoxy)-1-piperidyl]-3-[1-(fluoromethyl)-4-pyrazolyl]-1,4,6-triaza-7-naphthyl}-3-methyl-2,3-butanediol], the IC50 in assay [1] (procedure of Example 24) lay within 100 to 1000 nM; in assay [2] (procedure of Example 24) it was 1000 to 30000 nM.
In the case of `COc1cncc(-c2nc3cnc(Cl)cc3nc2N2CCN(Cc3ccc(F)cc3F)CC2)n1` [Compound 159, 2-(7-chloro-2-{4-[(2,4-difluorophenyl)methyl]piperazin-1-yl}pyrido[3,4-b]pyrazin-3-yl)-6-methoxypyrazine], the IC50 in assay [1] (setting [3]) and in assay [2] (setting [4]) was 1000 to 30000 nM each time.
Turning to `CC(=O)N1CCc2nc(N3CCC(Oc4ccc(F)cc4F)CC3)c(-c3cn[nH]c3)nc2C1` [Compound 32, 1-(2-(4-(2,4-difluorophenoxy)piperidin-1-yl)-3-(1H-pyrazol-4-yl)-7,8-dihydropyrido[3,4-b]pyrazin-6(5H)-yl)ethan-1-one], the IC50 in assay [1] (setting [5]) is 100 to 1000 nM; in assay [2] (setting [5]), 1000 to 30000 nM.
In the case of `CC(C)(O)[C@@H](O)c1cc2nc(N3CCC(Oc4ccc(F)cc4F)CC3)c(-c3cnn(C(F)F)c3)nc2cn1` (single isomer, unassigned) [Compound 555], the IC50 in assay [1] (setting [6]) is 100 to 1000 nM; in assay [2] (setting [7]), 1000 to 30000 nM.
Turning to `Cn1cc(-c2nc3cc(C(O)C(C)(C)O)ncc3nc2N2CCN(Cc3ccc(F)cc3F)CC2)cn1` (stereo not drawn) [Compound 268, 1-(3-{4-[(2,4-difluorophenyl)methyl]piperazin-1-yl}-2-(1-methyl-1H-pyrazol-4-yl)pyrido[3,4-b]pyrazin-7-yl)-2-methylpropane-1,2-diol], the IC50 was < 100 nM in assay [1] (procedure of Example 24) and 1000 to 30000 nM in assay [2] (procedure of Example 24).
Consider `CC(=O)N1CCc2nc(N3CCC(Oc4ccc(F)cc4F)CC3)c(C3CCN(C4COC4)C3)nc2C1` (stereo not drawn) [Compound 544, 1-{2-[4-(2,4-difluorophenoxy)-1-piperidyl]-3-[1-(3-oxetanyl)-3-pyrrolidinyl]-5,6,7,8-tetrahydro-1,4,6-triaza-6-naphthyl}-1-ethanone], for which the half-inhibitory concentration (IC50) in assay [1] (setting [6]) and in assay [2] (setting [7]) was 1000 to 30000 nM each time.
Take `CC(=O)N1CCc2nc(N3CCC(Oc4ccc(F)cc4F)CC3)c(-c3cnsc3)nc2C1` [Compound 8, 1-{2-[4-(2,4-difluorophenoxy)piperidin-1-yl]-3-(1,2-thiazol-4-yl)-5H,6H,7H,8H-pyrido[3,4-b]pyrazin-6-yl}ethan-1-one]: the results for the 50% inhibitory concentration (IC50) in assay [1] (setting [5]) and in assay [2] (setting [5]) were 100 to 1000 nM and 1000 to 30000 nM, respectively.
In the case of `CC(=O)N1CCc2nc(N3CCC(Oc4ccc(F)cc4F)CC3)c(-c3cnn(C4CC4)c3)nc2C1` [Compound 164], the IC50 lay in the range of 100 to 1000 nM in assay [1] (setting [3]) and 1000 to 30000 nM in assay [2] (setting [4]).
In the case of `CC(=O)N1CCc2nc(N3CCC(Oc4ccc(F)cc4F)CC3)c(-c3cnc4n3CCNC4)nc2C1` [Compound 24, 1-(2-(4-(2,4-difluorophenoxy)piperidin-1-yl)-3-(5,6,7,8-tetrahydroimidazo[1,2-a]pyrazin-3-yl)-7,8-dihydropyrido[3,4-b]pyrazin-6(5H)-yl)ethan-1-one], the IC50 was in the range of 1000 to 30000 nM in assay [1] (setting [5]) and 100 to 1000 nM in assay [2] (setting [5]).
Consider `Cn1cc(-c2nc3c(nc2N2CCC(Oc4ccc(F)cc4F)CC2)CC2COCC(=O)N2C3)cn1` (stereo not drawn) [Compound 488, 6-[4-(2,4-difluorophenoxy)piperidin-1-yl]-5-(1-methyl-1H-pyrazol-4-yl)-12-oxa-1,4,7-triazatricyclo[8.4.0.0^3,8]tet radeca-3(8),4,6-trien-14-one], for which the IC50 was 100 to 1000 nM in assay [1] (setting [3]) and 1000 to 30000 nM in assay [2] (setting [4]).
For `N#CN1CCc2nc(N3CCC(Oc4ccc(F)cc4F)CC3)c(-c3cn[nH]c3)nc2C1` [Compound 171, 2-[4-(2,4-difluorophenoxy)piperidin-1-yl]-3-(1H-pyrazol-4-yl)-5H,6H,7H,8H-pyrido[3,4-b]pyrazine-6-carbonitrile] the same measures were < 100 nM and 1000 to 30000 nM.
With `CCn1cc(-c2nc3cnc([C@H](O)C(C)(C)O)cc3nc2N2CCC(Oc3ccc(F)cc3F)CC2)cn1` (single isomer, unassigned) [Compound 571], the concentration for half-maximal inhibition (IC50) in assay [1] (setting [6]) is < 100 nM; in assay [2] (setting [7]), 1000 to 30000 nM.
`CCn1cc(-c2nc3cnc(C(O)C(C)(C)O)cc3nc2N2CCN(Cc3ccc(F)cc3F)CC2)cn1` (stereo not drawn) [Compound 270, 1-(2-{4-[(2,4-difluorophenyl)methyl]piperazin-1-yl}-3-(1-ethyl-1H-pyrazol-4-yl)pyrido[3,4-b]pyrazin-7-yl)-2-methylpropane-1,2-diol]: the IC50 in assay [1] (procedure of Example 24) was 100 to 1000 nM; in assay [2] (procedure of Example 24), 1000 to 30000 nM.
In the case of `CC(=O)N1CCc2nc(N3CCC(=Cc4ccccc4F)CC3)c(-c3cnn(C)c3)nc2C1` [Compound 623, 1-(2-{4-[(o-fluorophenyl)methylene]-1-piperidyl}-3-(1-methyl-4-pyrazolyl)-5,6,7,8-tetrahydro-1,4,6-triaza-6-naphthyl)-1-ethanone], the IC50 in assay [1] (procedure of Example 24) and in assay [2] (procedure of Example 24) was 100 to 1000 nM throughout.
As for `CCn1cc(-c2nc3c(nc2N2CCC(Oc4ccc(F)cc4F)CC2)CCN(C(=O)OC)C3)cn1` [Compound 273, methyl 2-[4-(2,4-difluorophenoxy)piperidin-1-yl]-3-(1-ethyl-1H-pyrazol-4-yl)-5H,6H,7H,8H-pyrido[3,4-b]pyrazine-6-carboxylate], the IC50 was < 100 nM in assay [1] (procedure of Example 24) and 1000 to 30000 nM in assay [2] (procedure of Example 24).

Values taken from patent publication US20260042755A1, “GPR6 INVERSE AGONISTS” (MapLight Therapeutics, Inc., priority 2022, published 2026).
